In patent publication EP0810221A1 (MITSUBISHI CHEMICAL CORPORATION, priority 1995, dated 1996):
pIC50: −log10 of the molar value.

Columns and labels:
m-Calpain = target: T1, m-Calpain (Rattus norvegicus, UniProt Q07009); experiment: Inhibitory activity against calpain (m-Calpain purified from brains of rats); type: biochemical
T1 construct: m-Calpain was purified from brains of rats; from tissue; host or cells: rat brain
T1 sequence (Q07009 20-700 limits assumed): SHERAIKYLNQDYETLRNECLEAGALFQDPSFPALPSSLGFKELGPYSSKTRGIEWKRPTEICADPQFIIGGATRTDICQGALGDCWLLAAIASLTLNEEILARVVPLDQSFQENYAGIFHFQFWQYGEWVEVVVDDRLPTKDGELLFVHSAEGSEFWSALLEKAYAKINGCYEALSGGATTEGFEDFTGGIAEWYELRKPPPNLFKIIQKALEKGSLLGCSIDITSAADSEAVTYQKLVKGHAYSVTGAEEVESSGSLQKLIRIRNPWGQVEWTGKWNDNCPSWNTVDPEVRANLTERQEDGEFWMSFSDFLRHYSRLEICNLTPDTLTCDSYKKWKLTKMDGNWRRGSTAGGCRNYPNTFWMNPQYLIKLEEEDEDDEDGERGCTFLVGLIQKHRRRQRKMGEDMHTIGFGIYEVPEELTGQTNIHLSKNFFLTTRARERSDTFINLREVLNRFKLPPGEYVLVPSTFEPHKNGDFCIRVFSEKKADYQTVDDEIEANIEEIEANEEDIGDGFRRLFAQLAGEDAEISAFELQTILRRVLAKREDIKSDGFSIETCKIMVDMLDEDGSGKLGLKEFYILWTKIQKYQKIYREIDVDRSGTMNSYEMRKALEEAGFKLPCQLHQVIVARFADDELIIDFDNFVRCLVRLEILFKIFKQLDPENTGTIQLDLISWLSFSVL
T1 sequence (Q64537 1-270 partner): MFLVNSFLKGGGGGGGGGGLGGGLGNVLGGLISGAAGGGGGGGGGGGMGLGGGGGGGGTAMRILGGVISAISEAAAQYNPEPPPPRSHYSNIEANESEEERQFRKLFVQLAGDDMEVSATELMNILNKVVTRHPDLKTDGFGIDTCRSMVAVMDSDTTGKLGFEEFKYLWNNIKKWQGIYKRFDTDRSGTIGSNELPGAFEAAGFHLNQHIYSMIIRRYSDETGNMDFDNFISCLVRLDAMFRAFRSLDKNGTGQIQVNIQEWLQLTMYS
Method: m-Calpain was purified from brains of rats according to a method described in a literature (Journal of Biological Chemistry, Vol. 259, p. 3210, 1984), and the inhibitory activity was determined in a manner according to a published method (Journal of Biological Chemistry, Vol. 259, p. 12489, 1984).

[1] = target: T2, cathepsin B (Sigma, C-6286) (Bos taurus, UniProt P07688); experiment: Inhibitory activity against cathepsin B; type: biochemical; conditions: Inhibitory activity against cathepsin B (Table-5)
T2 construct: purchased Sigma C-6286
Method: Inhibitory activity against cathepsin B (Sigma, C-6286) was determined according to a method described in a literature (Biochemical Journal, Vol. 201, p. 189, 1982).

[2] = Inhibitory activity against calpain (Table-6)
[3] = Inhibitory activity against calpain (continuation of Table-6)

Compound	pIC50 (m-Calpain; [2])	pIC50 [1]	pIC50 (m-Calpain; [3])
CC(C)C[C@H](NC(=O)OCc1ccc(Cl)cc1)C(=O)N[C@H]1CCOC1O (stereo partly drawn) [Example 17, (3S)-3-{(S)-2-(4-chlorobenzyloxycarbonylamino)-4-methylvalerylamino}-2-tetrahydrofuranol]	6.41	6.19	–
Cc1ccccc1COC(=O)N[C@@H](CC(C)C)C(=O)N[C@H]1CCOC1O (stereo partly drawn) [Example 18, (3S)-3-{(S)-4-methyl-2-(2-methylbenzyloxycarbonylamino)valerylamino}-2-tetrahydrofuranol]	6.36	6.24	–
Cc1ccc(COC(=O)N[C@@H](CC(C)C)C(=O)N[C@H]2CCOC2O)cc1 (stereo partly drawn) [Example 19, (3S)-3-{(S)-4-methyl-2-(4-methylbenzyloxycarbonylamino)valerylamino}-2-tetrahydrofuranol]	6.32	6.05	–
COc1ccccc1COC(=O)N[C@@H](CC(C)C)C(=O)N[C@H]1CCOC1O (stereo partly drawn) [Example 20, (3S)-3-{(S)-2-(2-methoxybenzyloxycarbonylamino)-4-methylvalerylamino)-2-tetrahydrofuranol]	6.25	5.98	–
COc1ccc(COC(=O)N[C@@H](CC(C)C)C(=O)N[C@H]2CCOC2O)cc1 (stereo partly drawn) [Example 21, (3S)-3-{(S)-2-(4-methoxybenzyloxycarbonylamino)-4-methylvalerylamino}-2-tetrahydrofuranol]	6.47	5.93	–
CC(C)C[C@H](NC(=O)OCC1CCCCO1)C(=O)N[C@H]1CCOC1O (stereo partly drawn) [Example 24, (3S)-3-{(S)-4-methyl-2-(2-tetrahydropyranylmethoxycarbonylamino)valerylamino}-2-tetrahydrofuranol]	5.89	5.54	–
CC(C)C[C@H](NC(=O)OCc1ccccn1)C(=O)N[C@H]1CCOC1O (stereo partly drawn) [Example 25, (3S)-3-{(S)-4-methyl-2-(2-pyridylmethoxycarbonylamino)valerylamino}-2-tetrahydrofuranol]	5.98	5.54	–
CC(C)C[C@H](NC(=O)OC1CCCCC1)C(=O)N[C@H]1CCOC1O (stereo partly drawn) [Example 27, (3S)-3-((S)-2-cyclohexyloxycarbonylamino-4-methylvalerylamino)-2-tetrahydrofuranol]	6.19	5.92	–
CC(C)C[C@H](NC(=O)Oc1ccccc1)C(=O)N[C@H]1CCOC1O (stereo partly drawn) [Example 28, (3S)-3-((S)-4-methyl-2-phenoxycarbonylaminovalerylamino)-2-tetrahydrofuranol]	6.28	5.77	–
CC(C)C[C@H](NC(=O)Cc1cccc2ccccc12)C(=O)N[C@H]1CCOC1O (stereo partly drawn) [Example 33, (3S)-3-{(S)-4-methyl-2-(1-naphthylacetylamino)valerylamino}-2-tetrahydrofuranol]	6.96	6.02	–
CC(C)C[C@H](NC(=O)COc1ccccc1)C(=O)N[C@H]1CCOC1O (some centres unmarked) [Example 34]	6.48	5.87	–
CC(C)C[C@H](NC(=O)c1ccccc1)C(=O)N[C@H]1CCOC1O (stereo partly drawn) [Example 39, (3S)-3-((S)-2-benzoylamino-4-methylvalerylamino)-2-tetrahydrofuranol]	6.43	6.70	–
CC(C)C[C@H](NC(=O)c1cccc(F)c1)C(=O)N[C@H]1CCOC1O (stereo partly drawn) [Example 41, (3S)-3-{(S)-2-(3-fluorobenzoylamino)-4-methylvalerylamino}-2-tetrahydrofuranol]	5.94	6.06	–
CC(C)C[C@H](NC(=O)c1ccc(F)cc1)C(=O)N[C@H]1CCOC1O (stereo partly drawn) [Example 42, (3S)-3-{(S)-2-(4-fluorobenzoylamino)-4-methylvalerylamino}-2-tetrahydrofuranol]	6.09	6.26	–
CC(C)C[C@H](NC(=O)c1ccc(Cl)cc1)C(=O)N[C@H]1CCOC1O (stereo partly drawn) [Example 43, (3S)-3-{(S)-2-(4-chlorobenzoylamino)-4-methylvalerylamino}-2-tetrahydrofuranol]	6.44	6.85	–
Cc1ccccc1C(=O)N[C@@H](CC(C)C)C(=O)N[C@H]1CCOC1O (stereo partly drawn) [Example 44, (3S)-3-{(S)-4-methyl-2-(2-methylbenzoylamino)valerylamino}-2-tetrahydrofuranol]	6.24	5.84	–

Compound	pIC50 (m-Calpain; [2])	pIC50 [1]	pIC50 (m-Calpain; [3])
Cc1cccc(C(=O)N[C@@H](CC(C)C)C(=O)N[C@H]2CCOC2O)c1 (stereo partly drawn) [Example 45, (3S)-3-{(S)-4-methyl-2-(3-methylbenzoylamino)valerylamino}-2-tetrahydrofuranol]	6.25	6.31	–
Cc1ccc(C(=O)N[C@@H](CC(C)C)C(=O)N[C@H]2CCOC2O)cc1C (stereo partly drawn) [Example 48, (3S)-3-{(S)-2-(3,4-dimethylbenzoylamino)-4-methylvalerylamino}-2-tetrahydrofuranol]	6.42	7.07	–
CCc1ccc(C(=O)N[C@@H](CC(C)C)C(=O)N[C@H]2CCOC2O)cc1 (stereo partly drawn) [Example 50, (3S)-3-{(S)-2-(4-ethylbenzoylamino)-4-methylvalerylamino}-2-tetrahydrofuranol]	6.19	6.70	–
CC(C)C[C@H](NC(=O)c1ccc(C(F)(F)F)cc1)C(=O)N[C@H]1CCOC1O (stereo partly drawn) [Example 51, (3S)-3-{(S)-4-methyl-2-(4-trifluoromethylbenzoylamino)valerylamino}-2-tetrahydrofuranol]	6.32	6.68	–
COc1ccc(C(=O)N[C@@H](CC(C)C)C(=O)N[C@H]2CCOC2O)cc1 (stereo partly drawn) [Example 53, (3S)-3-{(S)-2-(4-methoxybenzoylamino)-4-methylvalerylamino}-2-tetrahydrofuranol]	6.17	6.82	–
COc1cccc(OC)c1C(=O)N[C@@H](CC(C)C)C(=O)N[C@H]1CCOC1O (stereo partly drawn) [Example 55, (3S)-3-{(S)-2-(2,6-dimethoxybenzoylamino)-4-methylvalerylamino}-2-tetrahydrofuranol]	6.08	5.78	–
COc1cc(OC)cc(C(=O)N[C@@H](CC(C)C)C(=O)N[C@H]2CCOC2O)c1 (stereo partly drawn) [Example 56, (3S)-3-{(S)-2-(3,5-dimethoxybenzoylamino)-4-methylvalerylamino}-2-tetrahydrofuranol]	6.19	6.05	–
CCOc1ccc(C(=O)N[C@@H](CC(C)C)C(=O)N[C@H]2CCOC2O)cc1 (stereo partly drawn) [Example 57, (3S)-3-{(S)-2-(4-ethoxybenzoylamino)-4-methylvalerylamino}-2-tetrahydrofuranol]	–	6.62	6.60
CC(C)C[C@H](NC(=O)c1ccc2c(c1)OCO2)C(=O)N[C@H]1CCOC1O (stereo partly drawn) [Example 58, (3S)-3-{(S)-4-methyl-2-(3,4-methylenedioxybenzoylamino)valerylamino}-2-tetrahydrofuranol]	–	6.34	6.36
CC(C)C[C@H](NC(=O)c1cccc2ccccc12)C(=O)N[C@H]1CCOC1O (stereo partly drawn) [Example 59, (3S)-3-{(S)-4-methyl-2-(1-naphthoylamino)valerylamino}-2-tetrahydrofuranol]	–	6.10	6.40
CC(C)C[C@H](NC(=O)c1ccc2ccccc2c1)C(=O)N[C@H]1CCOC1O (stereo partly drawn) [Example 60, (3S)-3-{(S)-4-methyl-2-(2-naphthoylamino)valerylamino}-2-tetrahydrofuranol]	–	7.47	6.33
CC(C)C[C@H](NC(=O)c1ccco1)C(=O)N[C@H]1CCOC1O (stereo partly drawn) [Example 61, (3S)-3-{(S)-2-(2-furoylamino)-4-methylvalerylamino}-2-tetrahydrofuranol]	–	5.92	6.46
CCc1cc(C(=O)N[C@@H](CC(C)C)C(=O)N[C@H]2CCOC2O)n(C)n1 (stereo partly drawn) [Example 62, (3S)-3-{(S)-2-(3-ethyl-1-methyl-5-pyrazole)carbonylamino-4-methylvalerylamino}-2-tetrahydrofuranol]	–	6.30	6.00
COc1ccc(C=CC(=O)N[C@@H](CC(C)C)C(=O)N[C@H]2CCOC2O)cc1 (stereo partly drawn) [Example 65, (3S)-3-{(S)-2-(4-methoxycinnamoylamino)-4-methylvalerylamino}-2-tetrahydrofuranol]	–	6.72	6.15
CC(C)C[C@H](NS(=O)(=O)c1cccc2ccccc12)C(=O)N[C@H]1CCOC1O (stereo partly drawn) [Example 75, (3S)-3-{(S)-4-methyl-2-(1-naphtylsulfonylamino)valerylamino}-2-tetrahydrofuranol]	–	5.62	6.42
